{"source": "patent US4816487A", "about": "“1-(2-hydroxyaryl)-alkane-1-on-oximes-procedure of preparation and use in pharmaceuticals” (Humboldt-Universitaet zu Berlin, priority 1985, dated 1989)", "key": {"[1]": {"test_system": "trachea isolated from guinea pig", "assay": "carbachol-induced contraction of trachea isolated from guinea pig", "settings": "spasm by 3.9 μM carbachol; clearly detectable even at 50 μM of active substance", "method": "Action of 5-methyl-2-hydroxy-laurophenone-oxime on carbachol-induced contraction of trachea isolated from guinea pig:\nThe compound was checked for anti-asthmatic activity by means of measuring methods well established and known from the literature (cf p. 5) but modified for the purpose of this invention, using a tracheal spiral isolated from guinea pig. Measurements were conducted in thermostat-controlled organ bath in isotonic condition, using a contraction gauge with lever-type sensor, measuring coil, and measuring amplifier (inductive measurement by means of high-frequency oscillating circuit). Air was used for gassing. The suspension solution was of the following composition: 39.46 g of sodium chloride, 2.2 g of potassium chloride, 6.07 g of tris, 1.0 g of calcium chloride, 9.9 g of glucose, 1.0 ml of saturated magnesium chloride solution, 43 ml 1N hydrochloric acid per 5 l, pH 7.4.\nSpasm was induced by 3.9 μM of carbachol."}, "[2]": {"test_system": "sensitised guinea pig", "assay": "allergen (ovalbumin)-induced bronchoconstriction in vivo of sensitised guinea pig (allergic asthma of guinea pig)", "settings": "for tolerance of additional/successive ovalbumin injections: pretreated animals, two additional (three successive) injections of 40 μg ovalbumin", "description": "These pharmacological properties were largely verified by measuring methods which were, basically, known from the literature. They were, however, applied in a modified form. […] 63, 1 (1979); M. W. Schneider and J. M. Drazen, Amer. Rev. Resp. Dis. 121, 835 (1980); S. S. Yen and W. Kreutner, Agents Actions 10, 174 (1980); S. S. Yen, Prostaglandins 22, 183 (1981); Adcock, J. J.; Garland, L. G.; Brit. J. Pharmacol. 69, 167 (1980); W. Diamantis, J. L. Melton; D. Sofia et al., Europ. J. Pharmacol. 56, 407 (1979); P. Anderson, Brit. J. Pharmacol. 77, 301 (1982)].\nIt was, remarkably, observed that all control animals died of apnoea after one single intraperitoneal application of ovalbumin (40 μg/kg body weight), following protracted and extremely severe asthmatic reaction (anaphylactic shock?).\nAction on allergen-induced bronchoconstriction in vivo of sensitised guinea pig (\"allergic asthma of guinea pig\"):\nThis test was applied to male guinea pigs, 30 to 35 days from sensitisation, using 330 mg of aluminium hydroxide and 33 μg of ovalbuminper one kilogram of body weight (fresh preparation in physiological sodium chloride solution).\n(Method was modified according to P. Anderson, Brit. J. Pharmacol. 77, 301 (1982).) The animals were anaesthetised by intraperitoneal application of 1.3 g/kg body weight of urethane, while 2 mg/kg body weight of Pavulon® were intravenously injected for muscular relaxation. Intravenous injection of 40 μg of ovalbumin triggered off the allergen-induced bronchoconstriction which developed to the full scale of anaphylactic shock in all control animals, within few seconds. The animals, tracheostomised and with venous catheters, were artificially ventilated at rhythmic negative pressure in a tank respirator (f=16 min^-1; inspiration:expiration=1:1). Gas flow(V), breathing volume (VT), and ECG were checked in the course of pneumotachography. The animals had been pretreated by two intraperitoneal injections of finely crushed 5-methyl-2-hydroxylaurophenone-oxime, suspended in agar-agar. […]"}, "[3]": {"target": "T1, lipoxygenase from rabbit reticulocytes (Oryctolagus cuniculus, UniProt P12530)", "T1 construct": "Lipoxygenase from rabbit reticulocytes was obtained in electrophoretically and immunologically pure form; from tissue; host or cells: rabbit reticulocytes", "T1 sequence (P12530 1-663)": "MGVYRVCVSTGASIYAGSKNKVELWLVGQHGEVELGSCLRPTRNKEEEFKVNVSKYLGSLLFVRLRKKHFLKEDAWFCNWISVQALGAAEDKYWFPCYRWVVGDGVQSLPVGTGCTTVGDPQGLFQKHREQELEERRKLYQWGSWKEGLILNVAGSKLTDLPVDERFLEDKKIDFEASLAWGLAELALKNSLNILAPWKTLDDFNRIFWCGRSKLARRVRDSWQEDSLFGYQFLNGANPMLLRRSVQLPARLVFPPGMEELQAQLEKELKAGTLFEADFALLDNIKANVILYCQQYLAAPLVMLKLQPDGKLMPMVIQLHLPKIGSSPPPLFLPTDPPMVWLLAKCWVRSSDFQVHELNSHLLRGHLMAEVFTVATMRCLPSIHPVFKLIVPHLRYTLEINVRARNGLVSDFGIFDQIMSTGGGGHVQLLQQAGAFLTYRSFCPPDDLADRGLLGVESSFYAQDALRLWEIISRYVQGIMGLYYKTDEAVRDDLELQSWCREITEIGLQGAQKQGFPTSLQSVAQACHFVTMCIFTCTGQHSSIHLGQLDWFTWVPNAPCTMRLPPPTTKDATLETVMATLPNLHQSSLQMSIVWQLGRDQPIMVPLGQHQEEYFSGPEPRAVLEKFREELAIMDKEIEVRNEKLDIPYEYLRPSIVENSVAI", "assay": "inhibition of activity of lipoxygenase from rabbit reticulocytes", "format": "biochemical", "method": "Persuasive evidence to inhibition of lipoxygenase was produced by a suitable animal lipoxygenase which had been isolated from rabbit reticulocytes, using a method by Rapoport and coworkers /S. M. Rapoport et al., Eur. J. Biochem. 96, 545 (1979)/. A final concentration of 1 mM of most of the compounds, according to this invention, produced inhibition of 90 percent or more (cf. Example 20). Significant inhibition was even recordable from a final concentration of 0.1 mM of some of the compounds, according to this invention. Substance concentrations were varied to determine the titration curves of inhibition and from these the half-inhibition concentrations (I50 -values). A half-inhibition concentration of 7 μM was established for 5-methyl-2-hydroxy-laurophenone-oxime, an oxime of high anti-asthmatic effectiveness.\nInhibition of activity of lipoxygenase from rabbit reticulocytes:\nLipoxygenase from rabbit reticulocytes was obtained in electrophoretically and immunologically pure form by means of the method described in the literature /S. M. Rapoport et al., Eur. J. Biochem. 96, 545 (1979)/. Lipoxygenase activity was determined at 25° C. by amperometric measurement of oxygen consumption by means of a Clark electrode in the following system: 0.1M potassium phosphate, pH 7.4, with 0.2-per-cent sodium cholate and 0.53 mM linoleic acid. The enzyme concentration was […] in the sample for measurement. The substances submitted for testing were dissolved in methyl glycol (fresh distillation in vacuum) and pre-incubated ten minutes with the enzyme at measurement temperature and in the absence of sodium cholate and linoleic acid. […] No remarkable inhibition occurred to control samples under these conditions. Enzyme reaction was started by addition of sodium cholate and linoleic acid. The titration curve of inhibition and, consequently, the concentrations required for inhibition by the order of 50 per cent were determined by variation of active substance concentrations. For comparison, the compounds were tested also on commercial lipoxygenase-1 from soybean."}}, "data": [{"smiles": "CCCCCCCCCCCC(=NO)c1cc(C)ccc1O", "note": "[5-methyl-2-hydroxy-laurophenone-oxime]", "values": [{"measurement": "dilatation after carbachol-induced spasm", "setting": "[1]", "value": "strong dilatation"}, {"measurement": "inhibition of ovalbumin-induced asthma reaction", "setting": "[2]; 2 x 10 mg/kg i.p., 90 and 60 minutes prior, 40 μg ovalbumin i.v., all probands", "value": "Complete inhibition"}, {"measurement": "tolerance of additional/successive ovalbumin injections", "setting": "[2]", "value": "tolerated without reaction"}, {"measurement": "tolerance of additional/successive ovalbumin injections", "setting": "[2]; listed as 5-methyl-2-hydroxyl-laurophenone-oxime", "value": "tolerated without any sign of bronchoconstriction"}, {"measurement": "IC50", "setting": "[3]; limited by solubility, real I50 said to be very much lower, read-out: half-inhibition concentration (I50)", "value": 7, "unit": "µM"}, {"measurement": "inhibition at 1000 µM", "setting": "[3]; ultimate concentration 1.0 mM, read-out: Inhibition (percent) of lipoxygenase from reticulocytes", "value": 100, "unit": "%"}]}]}
